Results reported in article PMC6689897, “Drugging an undruggable pocket on KRAS” (Proceedings of the National Academy of Sciences of the …, 2019).
Where “and” joins values, the source holds several entries; their conditions need not be identical. Equal values may be shown once.

Assays:
GTP-KRASG12D::CRAF = molecular target: T1, GTP-KRASG12D::CRAF (Homo sapiens, UniProt P01116, G12D); experiment: Alpha Screen PPI assay; format: biochemical; conditions: duplicate
T1 construct: KRAS (G12D) 1-169, N-terminal 6His-tag, C-terminal avi-tag was from Xtal; 6His-tag (N); purchased Xtal BioStructures, Inc
Method: (§1) 221 Measurements of various protein–protein interactions were performed using the Alpha
(§2) 222 Screen technology developed by Perkin Elmer. Recombinant RAS proteins (H-, N-, K-
(§3) 223 RAS variants; all KRAS variants are based on KRAS isoform 4B (uniprot id P01116-2);
(§4) 224 KRAS (G12D) 1-169, N-terminal 6His-tag, C-terminal avi-tag was from Xtal
(§5) 225 BioStructures, Inc., KRAS (G12C) 1-169, C-terminal avi-tag, biotinylated, mutations:
(§6) 226 C51S, C80L, C118S, NRAS(wt) 1-172, C-terminal avi-tag, biotinylated; HRAS(wt) 1-
(§7) 227 166, C-terminal avi-tag, biotinylated). Biotinylation was performed in vitro with
(§8) 228 recombinant BirA biotin-protein ligase as recommended by the manufacturer (Avidity
(§9) 229 LLC, Aurora, Colorado, USA). Interacting proteins such as SOS1 (564-1049, N-terminal
(§10) 230 GST-tag, TEV cleavage site), cRaf (1-303, N-terminal GST-tag, TEV cleavage site) and
(§11) 231 PI3KA- RBD (160-317, N-term-HIS_GST-tag) were expressed as glutathione S
(§12) 232 transferase (GST) fusions. Accordingly, the Alpha Screen beads were glutathione coated
(§13) 233 Alpha Lisa acceptor beads (Perkin Elmer AL 109 R) and Alpha Screen Streptavidin
(§14) 234 conjugated donor beads (Perkin Elmer 6760002L). Nucleotides were purchased from
(§15) 236 interaction assays were carried out in PBS, containing 0.1% bovine serum albumin,
(§16) 237 0,05% Tween-20 and 10 µM of the corresponding nucleotide. Assays were carried out in
(§17) 238 white ProxiPlate-384 Plus plates (Perkin Elmer #6008280) in a final volume of 20 µL. In
(§18) 239 brief, biotinylated RAS proteins (10 nM final concentration) and GST-SOS1, GST-PI3K
(§19) 240 or GST-CRAF (10 nM final) were mixed with glutathione acceptor beads (5 µg/mL final
(§20) 241 concentration) in buffer, containing the corresponding nucleotides (GDP or GTP for
(§21) 242 assays containing SOS1, only GTP for interaction assays containing PI3K or CRAF) and
(§22) 243 were incubated for 30 min at room temperature. After addition of streptavidin donor
(§23) 244 beads (5 µg/mL final concentration) under green light, the mixture was further incubated
(§24) 245 for 60 min in the dark at room temperature. Single oxygen induced fluorescence was
(§25) 246 measured at an Enspire multimode plate reader (Perkin Elmer) according to the
(§26) 247 manufacturer’s recommendations. […]

GTP-KRASG12D::PI3Kα = molecular target: T2, GTP-KRASG12D::PI3Kα (Homo sapiens, UniProt P01116, G12D); experiment: Alpha Screen PPI assay; format: biochemical; conditions: duplicate, read-out: IC50 GTP-KRASG12D::PI3K
T2 construct: KRAS (G12D) 1-169, N-terminal 6His-tag, C-terminal avi-tag was from Xtal; 6His-tag (N); purchased Xtal BioStructures, Inc
Method: as §1, §2, §3, §4, §5, §6, §7, §8, §9, §10, §11, §12, §13, §14, §15, §16, §17, §18, §19, §20, §21, §22, §23, §24, §25, §26

GTP-KRASwt::PI3Kα = molecular target: T3, GTP-KRASwt::PI3Kα (Homo sapiens, UniProt P01116); experiment: Alpha Screen PPI assay; format: biochemical; conditions: duplicate, read-out: IC50 GTP-KRASwt ::PI3K
T3 construct: biotin (attachment tag not described)
Method: as §1, §2, §3, §4, §5, §6, §7, §8, §9, §10, §11, §12, §13, §14, §15, §16, §17, §18, §19, §20, §21, §22, §23, §24, §25, §26

GTP-KRASwt::CRAF [1] = experiment: Alpha Screen PPI assay; format: biochemical, human
Method: as §1, §2, §3, §4, §5, §6, §7, §8, §9, §10, §11, §12, §13, §14, §15, §16, §17, §18, §19, §20, §21, §22, §23, §24, §25, §26

GTP-KRASwt::SOS1 = molecular target: T4, GTP-KRASwt::SOS1 (Homo sapiens, UniProt P01116); experiment: Alpha Screen PPI assay; format: biochemical; conditions: duplicate
T4 construct: biotin (attachment tag not described)
Method: as §1, §2, §3, §4, §5, §6, §7, §8, §9, §10, §11, §12, §13, §14, §15, §16, §17, §18, §19, §20, §21, §22, §23, §24, §25, §26

GTP-KRASwt::CRAF [2] = molecular target: T5, GTP-KRASwt::CRAF (Homo sapiens, UniProt P01116); experiment: Alpha Screen PPI assay; format: biochemical; conditions: Alpha Screen, duplicate
T5 construct: biotin (attachment tag not described)
Method: as §1, §2, §3, §4, §5, §6, §7, §8, §9, §10, §11, §12, §13, §14, §15, §16, §17, §18, §19, §20, §21, §22, §23, §24, §25, §26

[3] = system: 4 BRAF(v600E) cell lines (A375, RKO, Colo 201, SK-MEL-28); experiment: pERK modulation in BRAF V600E control cell lines; format: cell-based, human
Method: (§27) 217 The coordinates and structure factors of the structures have been deposited at the
(§28) 218 Protein Data Bank with the accession codes PDB Code 6GJ5, 6GJ6, 6GJ7, 6GJ8.
as §1, §2, §3, §4, §5, §6, §7
228 recombinant BirA biotin-protein ligase as recommended by the manufacturer (Avidity […]
(§29) 231 PI3KA- RBD (160-317, N-term-HIS_GST-tag) were expressed as glutathione S […]
as §24, §25
(§30) 247 manufacturer’s recommendations. Data were analyzed using the GraphPad Prism data […]
313 added according to manufacturer’s instructions. Fluorescence intensity was determined
314 using a fluorescence reader (2030 VICTOR X5, Perkin Elmer). […]
319 MAPK pathway signaling (pERK, pAKT quantification) […]

[4] = system: 4 BRAF(v600E) cell lines (A375, RKO, Colo 201, SK-MEL-28); experiment: 2D and 3D proliferation in BRAF V600E control cell lines; format: cell-based, human; conditions: low serum, soft agar, or high serum, adherent conditions
Method: as §27, §28, §1, §2, §3, §4, §5, §6, §7, §8
229 LLC, Aurora, Colorado, USA). Interacting proteins such as SOS1 (564-1049, N-terminal […]
as §29, §24, §25, §30
275 IgG secondary antibody (Dako #P0448) and detected with ECL (GE Healthcare Life […]

T1 sequence (P01116 1-169 isoform P01116-2 G12D): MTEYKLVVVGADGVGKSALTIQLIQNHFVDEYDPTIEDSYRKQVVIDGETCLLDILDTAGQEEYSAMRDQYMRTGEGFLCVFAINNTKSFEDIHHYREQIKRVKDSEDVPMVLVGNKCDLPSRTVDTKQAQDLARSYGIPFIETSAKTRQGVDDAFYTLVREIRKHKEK
T2 sequence (P01116 1-169 isoform P01116-2 G12D): as above
T4 sequence (P01116 1-188 isoform P01116-2): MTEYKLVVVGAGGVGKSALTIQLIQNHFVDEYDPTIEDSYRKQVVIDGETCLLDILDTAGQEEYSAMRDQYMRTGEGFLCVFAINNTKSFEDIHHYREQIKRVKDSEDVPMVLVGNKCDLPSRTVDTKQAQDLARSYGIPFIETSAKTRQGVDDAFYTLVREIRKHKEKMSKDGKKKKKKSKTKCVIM
T3 sequence (P01116 1-188 isoform P01116-2): as above
T5 sequence (P01116 1-188 isoform P01116-2): as above

Cn1cnc(Cn2ccc3ccc(CNCc4[nH]c5ccccc5c4[C@H]4NC(=O)c5ccc(O)cc54)cc32)c1 [Compound 1]
IC50 (GTP-KRASG12D::CRAF): 770 nM and 180 nM | IC50 (GTP-KRASG12D::PI3Kα): 500 nM | IC50 (GTP-KRASwt::PI3Kα): 250 nM | selectivity of inhibition biochemically, KRAS^wt versus KRAS^G12C binding to CRAF (GTP-KRASwt::CRAF [1]): 4 fold | IC50 (GTP-KRASwt::SOS1): 490 nM | IC50 (GTP-KRASwt::CRAF [2]): 740 nM | inhibition of pERK [3]: no inhibition of pERK | antiproliferative effect [4]: No antiproliferative effect
